Test results published in patent US10106577B2, “Agonists of neurotrophin receptors and their use as medicaments” (BIONURE FARMA, S.L., priority 2010, dated 2018).
“Also recorded” adds a separate entry of the source.

What was measured:
[1] = tested on: NSC-34 cells; assay: In vitro model of ALS, serum deprivation of motoneuron-like cells (MTT); format: cell-based, mouse; settings: for neuroprotection on motorneurons challenged with serum deprivation (in words): 20 ng/ml to 50 μg/ml
Experimental: Mouse motoneuron-like cells NCS-34 were cultured in DMEM (Gibco) supplemented with 10% heat inactivated FBS and 1% penicillin/streptomycin. The cell culture was maintained in a humidified atmosphere of 95% air and CO2 at 37° C.
The nutritional deprivation stress in motorneurons was conducted as described previously in Masahito T. et al., J. Neuropathol. Exp. Neurol. 65(8):816-825 (2006). To assess the effect of trophic stress condition on ALS, the presence of apoptosis was investigated using serum deprivation. NSC-34 cells were seeded in 24-well poly-lysinated plates at 30,000 cells/well and preincubated for 24 h in DMEM plus 10% FBS with various doses of G79, G80, and G81 (20 ng/ml, 100 ng/ml, 2 μg/ml, 20 μg/ml, 50 μg/ml), and G-CSF (2 μg/ml) or BDNF (20 ng/ml) which both were used as positive controls (Masahito T. et al., ibid; Elliot J. L., Neurobiology of Disease 6:310-320 (1999)). Then, the medium was removed and replaced with fresh DMEM without FBS. After 48 h, cell viability was assayed by MTT assay, as described previously.

[2] = tested on: PC12 cells; assay: Dose response differentiation assay in PC12 cell line; format: cell-based; settings: for number of differentiated cells in a field of 100 cells: after 3 days of treatment; for number of differentiated cells above the best working concentration: G79 at 50 μg/ml, G81 at concentrations higher than 100 ng/ml; for differentiation of PC12 cells (in words): compared to control PC12 untreated cells; for best working concentration for PC12 differentiation: tested 2-20-100 ng/ml and 2-20-50 μg/ml
Experimental: Stock of PC12 cultures were maintained in Ham's F12 medium supplemented with 2.5% fetal bovine serum (FBS), 15% of horse serum (HS) and 1% penicillin/streptomycin. The cell culture was maintained in 5% CO2 at 37° C.
PC12 cell differentiation was assessed by treating the cells with all the test compounds (G79, G80, and G81) at different testing concentration (2-20-100 ng/ml and 2-20-50 μg/ml). The cells were first plated into collagen-coated 24-wells plates with 2.5% FBS in the medium to be de-differentiated. After 72 hrs, the test compounds were added and NGF (Sigma Aldrich; 100 ng/ml) as positive control of differentiation. The number of differentiated cells, with neurite processes greater than two cell bodies in length, is counted after 3 days of treatment. The cell count is done in three randomly selected fields with 100 cells.

[3] = biological target: T1, p75 receptor (Rattus norvegicus, UniProt P07174); assay: Cytometry binding assay in PC12 with anti-TrkA antibody; settings: cells pre-incubated with anti-TrkA antibody; growing NGF
T1 construct: PC12 cells expressing both TrkA and p75 receptors were cultivated in normal growth medium; endogenous in cells; host or cells: PC12
T1 sequence (P07174 30-425): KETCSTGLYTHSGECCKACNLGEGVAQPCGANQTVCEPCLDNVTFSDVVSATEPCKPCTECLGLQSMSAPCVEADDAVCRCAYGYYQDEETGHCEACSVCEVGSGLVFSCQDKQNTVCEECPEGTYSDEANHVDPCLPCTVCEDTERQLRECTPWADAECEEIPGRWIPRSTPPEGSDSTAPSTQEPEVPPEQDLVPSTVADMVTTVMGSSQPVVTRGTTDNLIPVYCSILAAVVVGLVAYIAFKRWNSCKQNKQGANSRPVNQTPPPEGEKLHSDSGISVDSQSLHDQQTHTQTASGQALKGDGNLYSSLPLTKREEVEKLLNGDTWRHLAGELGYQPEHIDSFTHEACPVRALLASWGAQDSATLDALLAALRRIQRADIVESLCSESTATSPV
Experimental: (§1) In order to assess the binding of G79 to the TrkA (PC12 cells) and TrkB receptors (SH-SY5Y), we performed competitive binding assays by flow cytometry. In order to assess the binding competition between p75 and TrkA, PC12 cells expressing both TrkA and p75 receptors were cultivated in normal growth medium. After detaching cells by trypsin solution, 200,000 cells/well were added to tubes for the following incubations. One tube contains control untreated cells. In the other tubes, cells were pre-incubated for 45 minutes with different concentrations of NGF (0-10-20-50-100 ng/ml), that can directly bind both TrkA and p75 receptors, blocking the possible binding of G79 if it competes for the same receptors. Then, without washing the cells, G79 conjugated with FITC fluorescence (100 ng/ml) was added and so incubated the cells for 1 hour. Samples were read in a cytometer (FCAScan).
(§2) To detect the binding separately on both receptors, a prior incubation of cells (before NGF incubation) with blocking antibodies was made. The cells were preincubated for 1 hour with blocking antibody anti-p75 (1:100; Chemicon Int.), to detect the binding on TrkA, or blocking antibody anti-TrkA (1:200; AbCam) to detect the binding on p75. […] All the results are expressed as mean channel fluorescence (MCF), which is a measure of the cell surface fluorescence produced by G79-FITC binding.

[4] = tested on: NGF-receptors (TrkA and p75) on PC12 cells; assay: Cytometry binding assay, competition NGF/G79-FITC in PC12; settings: G79-FITC 100 ng/ml; NGF 0-10-20-50-100 ng/ml
Experimental: as §1, §2

Structure (SMILES)	neuroprotection on motorneurons challenged with serum deprivation (in words) [1]	viability at 0.1 µg/mL ([1]; Mus musculus, NSC-34, 100 ng/ml, serum deprivation 48 h, read-out: cell viability, percentage relative to the control without stress) [%]	concentration of the best neuroprotective effect ([1]; serum deprivation) [ng/mL]	number of differentiated cells in a field of 100 cells ([2]; 20 μg/ml) [cells]	number of differentiated cells above the best working concentration [2]	differentiation of PC12 cells (in words) [2]	best working concentration for PC12 differentiation [2] [ng/mL]	binding on p75 (MCF of G79-FITC) [3]	competition with NGF for binding (MCF of G79-FITC) [4]	number of differentiated cells in a field of 100 cells ([2]; 100 ng/ml) [cells]
CC(C)CN(CC(=O)N(CCCN1CCCC1=O)CC(N)=O)C(=O)CNCCc1ccccc1F [Compound G79, [N-(2-(2′-Fluorophenyl)ethyl)glycyl]-[N-(2-methylpropyl)glycyl]-N-[3-(2′-oxopyrrolidinyl)propyl]glycinamide]	exerted neuroprotection	98.1 ± 6.14	100	11.3±2.68	decreases	induce the differentiation of PC12 cells	20000	could bind on p75 receptor	competes for the binding on the same NGF-receptors	
CC(C)CN(CC(=O)N(CCc1ccc(S(N)(=O)=O)cc1)CC(N)=O)C(=O)CNCCN1CCCC1 [Compound G81, [N-(2-(1-Pyrrolidinyl)ethyl)glycyl]-[N-(2-methylpropyl)glycyl]-N-[2-(4′-sulfamoylphenyl)ethyl]glycinamide]	exerted neuroprotection				decreases	induce the differentiation of PC12 cells; also recorded: significant differentiation	100			9.2±3.9
CC(C)CN(CC(=O)N(CCc1ccc(S(N)(=O)=O)cc1)CC(N)=O)C(=O)CNCCc1ccccc1F [Compound G80, [N-(2-(2′-Fluorophenyl)ethyl)glycyl]-[N-(2-methylpropyl)glycyl]-N-[2-(4′-sulfamoylphenyl)ethyl]glycinamide]	exerted neuroprotection					induce the differentiation of PC12 cells; also recorded: good differentiation with very long neurites	20			
